{"source": "paper PMC5906549", "about": "“Cathelicidin-Derived Antimicrobial Peptides Inhibit Zika Virus Through Direct Inactivation and Interferon Pathway” (Frontiers in Immunology, 2018)", "key": {"[1]": {"assay": "Cell viability MTS assay in Vero cells", "details": "African green monkey", "description": "Cell viability was examined by the CellTiter 96 ®Aqueous One Solution Cell Proliferation Assay (Promega, Madison, WI, USA). Vero cells and astrocytes were seeded into 96-well tissue culture plates (Fisher Scientific) and treated with fresh growth medium containing different concentrations of each peptide for 2 or 4 days at 37°C. At the experimental end point, MTS [3-(4,5-dimethylthiazol-2-yl)-5-(3-carboxymethoxyphenyl)-2-(4-sulfophenyl)-2H-tetrazolium] was added to the cultures and incubated for 1 h. The absorbance at 490 nm was recorded through BioTek Gen5 data analysis software (Winooski), VT, optical density (OD) values were used as a representation of cell viability.\n(A) Vero cells were treated with doses of peptides ranging from 1 to 50 µM. After 24 h, the cultures were washed and treated with same doses of peptides in fresh medium for another 24 h. Cell viability was determined by a colorimetric MTS assay. Results shown are the averages ±SD of experiments performed in triplicate. Data were analyzed by non-linear regression. The EC50 was assessed for each of the antimicrobial peptides. (B) Vero cells were treated with doses of peptides ranging from 0.4 to 10 µM for 2 h then infected with ZIKV at the MOI of 0.5. After 24 h, the cultures were washed and treated with same doses of peptides in fresh medium for another 24 h. ZIKA RNA was detected in total cellular RNA through real-time RT-PCR. Data were normalized to GAPDH and presented as fold change (in log scale) compared with ZIKV group. ** p < 0.01 and *** p < 0.001, as compared with the ZIKV group without the peptide treatment (ANOVA, N = 3).\nA, B) Vero cells were treated with 10 µM AMPs for 2 days or 4 days as outlined in the figure. For 4-day treatment, Vero cells were repeatedly treated with 10 µM AMPs at 2-day post-treatment. At the experimental end point, cell viability was determined by a colorimetric MTS assay CellTiter 96® AQueous One Solution Assay (Promega, Madison, WI) based on the manufacture’s instruction. Results were normalized as percentage of cell viability in control astrocytes. CTL, control. * denotes p < 0.05, ** denotes p < 0.01, *** denotes p < 0.001 as compared to the control group without peptide treatment (ANOVA, N = 3)."}, "[2]": {"test_system": "ZIKV strain MR766", "assay": "ZIKV RNA in infected Vero cells, peptide pre-treatment (real-time RT-PCR)", "type": "cell-based, Zika virus", "details": "2 h before ZIKV MOI 0.5, re-treated at 24 h, 48-h post-infection, RT-PCR normalized to GAPDH, N = 3", "description": "Human fetal astrocytes were derived from a single-cell isolation process of fetal brain tissues as previously described ([25], [26]). Briefly, dissociated brain tissue was incubated with 0.25% trypsin for 30 min, followed by neutralization with 10% fetal bovine serum (FBS), and further dissociated by trituration. The single-cell suspension was cultured as adherent cells in DMEM/F12 (Thermo Fisher Scientific, Waltham, MA, USA), supplemented with 10% FBS, penicillin (50 units/mL), and streptomycin (50 µg/mL) (Thermo Fisher Scientific). […] Vero cells (ATCC, CCL-81), an African green monkey kidney cell line, were maintained in Dulbecco’s Modified Eagle Medium (DMEM) with 5% FBS. Experiments with ZIKV were performed exclusively inside a BioSafety Level 2 (laboratory). All procedures utilized in this study were approved by the Institutional Biosafety Committee (IBC 16-05-013BL2) and followed biosafety level II practices as shown in National Institutes of health (NIH) Guideline Appendix G-II-B. ZIKV strain MR766 (Uganda, 1947) was obtained from ZeptoMetrix Corp., Buffalo, NY, USA, and propagated in Vero cells. ZIKV infection of the Vero cells and fetal astrocytes was previously characterized ([27]) and all infections in the current studies were at the MOI of 0.5.\nTotal mRNA was isolated with TRIzol Reagent (Thermo Fisher Scientific) and RNeasy Mini Kit (QIAGEN Inc., Valencia, CA, USA) following the manufacturer’s recommendations. Two real-time RT-PCR methods were used for the current studies. First, SYBR Green-based RT-PCR assay was used to determine intracellular ZIKV RNA in Vero cells. For this assay, reverse transcription was performed using Verso cDNA synthesis Kit (Thermo Fisher Scientific) and 1 µg of total RNA in a 15-µL final volume. The RT-PCR analyses were performed using 7.5-µL SYBR Green PCR Master Mix (Thermo Fisher Scientific) with 0.5-µL cDNA, 1.5-µL H2O, 5.5-µL oligonucleotide primer pairs at 10 µM. […] GG-3. PCR program: 1, 50°C for 2 min; 2, 95°C for 2 min; 3, 95°C for 15 s; 4, specific annealing temperature for 15 s; 5, 72°C for 1 min. Steps 2–4 were repeated 40 times. All samples were amplified in triplicate for analysis. Relative ZIKV RNA levels were determined and standardized with a GAPDH internal control using comparative ΔΔCT method ([35]). Second, TaqMan-based RT-PCR assay was used to determine intracellular ZIKV RNA and other gene expressions in Figures 3–6 and extracellular ZIKV RNA in Figure 3. The TaqMan assay was performed in a StepOne^TM Real-Time PCR system (Thermo Fisher Scientific). Primers used for TaqMan real-time RT-PCR were all from the Thermo Fisher Scientific, which included ZIKV (forward sequence: 5-[…]-3, reverse sequence: 5- […]-3, and probe sequence: 5′-[…]-3), IFN-α2 (Hs00265051_s1), IFN-β1 (Hs01077958_s1), eukaryotic 18-s rRNA (Hs99999901_s1), β-actin (Hs99999903_m1), and GAPDH (Catalog number: 4310884E). Relative ZIKV mRNA levels were determined and standardized with a GAPDH or 18-s rRNA endogenous control using comparative ΔΔCT method ([35]). […] For ZIKV in supernatants, RNA was extracted from the supernatants through TRIzol™ LS Reagent (Thermo Fisher Scientific, 10296028) following the manufacturer’s manual. […] Quantitative genomic RNA from ZIKV (NR-1838DQ, ATCC) was used as a standard to calculate viral copies."}, "[3]": {"test_system": "ZIKV strain MR766", "assay": "ZIKV RNA in astrocytes with recombinant IFN-α or with inhibition of type-I IFN signaling", "type": "cell-based, Zika virus", "details": "astrocytes pretreated 2 h with anti-IFN-α neutralizing antibodies (200 neutralizing units/mL) or 1-µM fludarabine, then AMPs 2 h, ZIKV MOI 0.5; RNA at 24 h", "description": "Total mRNA was isolated with TRIzol Reagent (Thermo Fisher Scientific) and RNeasy Mini Kit (QIAGEN Inc., Valencia, CA, USA) following the manufacturer’s recommendations. Two real-time RT-PCR methods were used for the current studies. First, SYBR Green-based RT-PCR assay was used to determine intracellular ZIKV RNA in Vero cells. For this assay, reverse transcription was performed using Verso cDNA synthesis Kit (Thermo Fisher Scientific) and 1 µg of total RNA in a 15-µL final volume. The RT-PCR analyses were performed using 7.5-µL SYBR Green PCR Master Mix (Thermo Fisher Scientific) with 0.5-µL cDNA, 1.5-µL H2O, 5.5-µL oligonucleotide primer pairs at 10 µM. […] GG-3. PCR program: 1, 50°C for 2 min; 2, 95°C for 2 min; 3, 95°C for 15 s; 4, specific annealing temperature for 15 s; 5, 72°C for 1 min. Steps 2–4 were repeated 40 times. All samples were amplified in triplicate for analysis. Relative ZIKV RNA levels were determined and standardized with a GAPDH internal control using comparative ΔΔCT method ([35]). […] Relative ZIKV mRNA levels were determined and standardized with a GAPDH or 18-s rRNA endogenous control using comparative ΔΔCT method ([35]). […] Quantitative genomic RNA from ZIKV (NR-1838DQ, ATCC) was used as a standard to calculate viral copies."}}, "note": "Peptide text beside a SMILES is read from it.", "data": [{"smiles": "CC[C@H](C)[C@H](N)C(=O)N[C@@H](CCCCN)C(=O)N[C@@H](Cc1c[nH]c2ccccc12)C(=O)N[C@@H](CCCCN)C(=O)N[C@@H](CCCCN)C(=O)N[C@@H](CC(C)C)C(=O)N[C@@H](CC(C)C)C(=O)N[C@@H](CCCNC(=N)N)C(=O)N[C@@H](C)C(=O)N[C@@H](C)C(=O)N[C@@H](CCCCN)C(=O)N[C@@H](CCCNC(=N)N)C(=O)N[C@H](C(=O)N[C@@H](CC(C)C)C(=O)O)[C@@H](C)CC", "note": "[DASamP2] (H-IKWKKLLRAAKRIL-OH)", "values": [{"measurement": "EC50 at 48 h", "setting": "[1]", "result": "> 50", "unit": "µM"}, {"measurement": "ZIKV RNA compared with untreated controls", "setting": "[2]; peptide 2 µM", "result": "significantly decreased ZIKV RNA"}]}, {"smiles": "CC[C@@H](C)[C@@H](NC(=O)CN)C(=O)N[C@H](CCCCN)C(=O)N[C@H](CCC(=O)O)C(=O)N[C@H](Cc1ccccc1)C(=O)N[C@H](CCCCN)C(=O)N[C@H](CCCNC(=N)N)C(=O)N[C@@H](C(=O)N[C@@H](C(=O)N[C@H](CCC(N)=O)C(=O)N[C@H](CCCNC(=N)N)C(=O)N[C@@H](C(=O)N[C@H](CCCCN)C(=O)N[C@H](CC(=O)O)C(=O)N[C@H](Cc1ccccc1)C(=O)N[C@H](CC(C)C)C(=O)N[C@H](CCCNC(=N)N)C(=O)N[C@H](CC(N)=O)C(=O)N[C@H](CC(C)C)C(=O)N[C@@H](C(=O)O)C(C)C)[C@H](C)CC)C(C)C)[C@H](C)CC", "note": "[GI-20D-form]", "values": [{"measurement": "EC50 at 48 h", "setting": "[1]", "result": 4, "unit": "µM"}, {"measurement": "ZIKV RNA compared with untreated controls", "setting": "[2]; peptide 0.4 µM", "result": "significantly decreased ZIKV RNA"}, {"measurement": "ZIKV RNA compared with untreated controls", "setting": "[2]; peptide 2 µM", "result": "significantly decreased ZIKV RNA"}]}, {"smiles": "CC[C@H](C)[C@H](NC(=O)CN)C(=O)N[C@@H](CCCCN)C(=O)N[C@@H](CCC(=O)O)C(=O)N[C@@H](Cc1ccccc1)C(=O)N[C@@H](CCCCN)C(=O)N[C@@H](CCCNC(=N)N)C(=O)N[C@H](C(=O)N[C@H](C(=O)N[C@@H](CCC(N)=O)C(=O)N[C@@H](CCCNC(=N)N)C(=O)N[C@H](C(=O)N[C@@H](CCCCN)C(=O)N[C@@H](CC(=O)O)C(=O)N[C@@H](Cc1ccccc1)C(=O)N[C@@H](CC(C)C)C(=O)N[C@@H](CCCNC(=N)N)C(=O)N[C@@H](CC(N)=O)C(=O)N[C@@H](CC(C)C)C(=O)N[C@H](C(=O)O)C(C)C)[C@@H](C)CC)C(C)C)[C@@H](C)CC", "note": "[GI-20]", "values": [{"measurement": "EC50 at 48 h", "setting": "[1]", "result": "> 50", "unit": "µM"}, {"measurement": "ZIKV RNA compared with untreated controls", "setting": "[2]; peptide 0.4 µM", "result": "significantly decreased ZIKV RNA"}, {"measurement": "ZIKV RNA compared with untreated controls", "setting": "[2]; peptide 2 µM", "result": "significantly decreased ZIKV RNA"}]}, {"smiles": "CC[C@H](C)[C@H](NC(=O)[C@H](CCCCN)NC(=O)[C@H](CCC(=O)O)NC(=O)[C@H](CCCCN)NC(=O)[C@H](CO)NC(=O)[C@H](CCCCN)NC(=O)[C@H](CCCNC(=N)N)NC(=O)[C@H](Cc1ccccc1)NC(=O)[C@H](Cc1ccccc1)NC(=O)[C@H](CC(=O)O)NC(=O)CNC(=O)[C@H](CC(C)C)NC(=O)[C@@H](N)CC(C)C)C(=O)NCC(=O)N[C@@H](CCCCN)C(=O)N[C@@H](CCC(=O)O)C(=O)N[C@@H](Cc1ccccc1)C(=O)N[C@@H](CCCCN)C(=O)N[C@@H](CCCNC(=N)N)C(=O)N[C@H](C(=O)N[C@H](C(=O)N[C@@H](CCC(N)=O)C(=O)N[C@@H](CCCNC(=N)N)C(=O)N[C@H](C(=O)N[C@@H](CCCCN)C(=O)N[C@@H](CC(=O)O)C(=O)N[C@@H](Cc1ccccc1)C(=O)N[C@@H](CC(C)C)C(=O)N[C@@H](CCCNC(=N)N)C(=O)N[C@@H](CC(N)=O)C(=O)N[C@@H](CC(C)C)C(=O)N[C@H](C(=O)N1CCC[C@H]1C(=O)N[C@@H](CCCNC(=N)N)C(=O)N[C@H](C(=O)N[C@@H](CCC(=O)O)C(=O)N[C@@H](CO)C(=O)O)[C@@H](C)O)C(C)C)[C@@H](C)CC)C(C)C)[C@@H](C)CC", "note": "[LL-37, reference compound]", "values": [{"measurement": "ZIKV RNA compared with untreated controls", "setting": "[2]; peptide 0.4 µM", "result": "significantly decreased ZIKV RNA"}, {"measurement": "ZIKV RNA compared with untreated controls", "setting": "[2]; peptide 2 µM", "result": "significantly decreased ZIKV RNA"}]}, {"smiles": "Nc1nc(F)nc2c1ncn2[C@@H]1O[C@H](CO)[C@@H](O)[C@@H]1O", "note": "[fludarabine, Fludarabine]", "values": [{"measurement": "Effect on GF-17- and BMAP-18-mediated ZIKV inhibition", "setting": "[3]", "result": "dampened but did not completely block"}]}]}
